Laboratory results published in ChEMBL document CHEMBL5291721, “A preclinical secondary pharmacology resource illuminates target-adverse drug reaction associations of marketed drugs” (Nat Commun, 2023).
Where a SMILES comes first, the peptide text is derived from it.

Columns and labels:
Estrogen receptor = biological target: T1, Estrogen receptor (Homo sapiens, UniProt P03372)
T1 sequence (P03372 whole entry): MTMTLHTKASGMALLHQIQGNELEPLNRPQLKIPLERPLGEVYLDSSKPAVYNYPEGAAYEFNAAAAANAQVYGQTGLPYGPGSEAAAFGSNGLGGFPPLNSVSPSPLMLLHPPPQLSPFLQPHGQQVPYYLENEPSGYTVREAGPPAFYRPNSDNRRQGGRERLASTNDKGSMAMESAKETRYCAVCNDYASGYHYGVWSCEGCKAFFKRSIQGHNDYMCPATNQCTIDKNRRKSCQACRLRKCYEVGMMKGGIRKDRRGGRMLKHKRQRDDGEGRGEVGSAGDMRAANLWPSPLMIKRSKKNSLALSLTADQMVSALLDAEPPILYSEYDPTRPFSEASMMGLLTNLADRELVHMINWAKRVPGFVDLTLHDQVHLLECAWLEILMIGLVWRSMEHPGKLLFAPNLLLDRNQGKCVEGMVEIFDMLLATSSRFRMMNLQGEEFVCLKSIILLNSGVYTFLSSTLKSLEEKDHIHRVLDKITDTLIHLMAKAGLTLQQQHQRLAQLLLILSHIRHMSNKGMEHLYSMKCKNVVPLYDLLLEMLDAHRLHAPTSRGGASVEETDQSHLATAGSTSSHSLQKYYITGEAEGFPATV

D(3) dopamine receptor = D(3) dopamine receptor (Homo sapiens, UniProt P35462)
[1] = biological target: Kappa-type opioid receptor (Homo sapiens, UniProt P41145)
[2] = biological target: 5-hydroxytryptamine receptor 2B (Homo sapiens, UniProt P41595); format: functional, cell-based
B2 bradykinin receptor = biological target: T2, B2 bradykinin receptor (Homo sapiens, UniProt P30411)
T2 sequence (P30411 whole entry): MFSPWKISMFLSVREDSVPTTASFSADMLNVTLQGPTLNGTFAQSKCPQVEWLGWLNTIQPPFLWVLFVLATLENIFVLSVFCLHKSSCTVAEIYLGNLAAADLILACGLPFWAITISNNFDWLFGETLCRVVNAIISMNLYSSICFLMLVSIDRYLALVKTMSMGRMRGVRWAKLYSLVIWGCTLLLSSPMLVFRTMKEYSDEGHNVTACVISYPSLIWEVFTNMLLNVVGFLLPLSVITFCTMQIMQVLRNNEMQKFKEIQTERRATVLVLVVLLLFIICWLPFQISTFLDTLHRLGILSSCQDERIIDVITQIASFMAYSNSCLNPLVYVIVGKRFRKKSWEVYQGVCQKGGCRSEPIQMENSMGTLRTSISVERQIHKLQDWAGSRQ

[3] = biological target: T3, Gastrin/cholecystokinin type B receptor (Homo sapiens, UniProt P32239)
T3 sequence (P32239 whole entry): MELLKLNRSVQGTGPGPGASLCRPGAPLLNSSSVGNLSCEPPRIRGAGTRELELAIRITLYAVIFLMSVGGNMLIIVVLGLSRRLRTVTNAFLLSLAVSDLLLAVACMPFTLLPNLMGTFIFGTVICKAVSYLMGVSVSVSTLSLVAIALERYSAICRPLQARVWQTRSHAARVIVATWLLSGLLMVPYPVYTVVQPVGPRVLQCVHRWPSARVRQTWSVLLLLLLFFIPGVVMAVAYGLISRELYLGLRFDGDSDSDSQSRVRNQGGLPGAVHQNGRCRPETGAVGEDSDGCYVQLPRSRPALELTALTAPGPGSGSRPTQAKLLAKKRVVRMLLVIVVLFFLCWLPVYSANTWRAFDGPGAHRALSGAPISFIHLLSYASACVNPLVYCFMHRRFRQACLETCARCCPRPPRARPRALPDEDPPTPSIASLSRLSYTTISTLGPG

Adenosine receptor A2a = Adenosine receptor A2a (Homo sapiens, UniProt P29274)
Vasopressin V2 receptor = Vasopressin V2 receptor (Homo sapiens, UniProt P30518)
[4] = biological target: T4, Alpha-2A adrenergic receptor (Homo sapiens, UniProt P08913); format: functional, cell-based
T4 sequence (P08913 whole entry): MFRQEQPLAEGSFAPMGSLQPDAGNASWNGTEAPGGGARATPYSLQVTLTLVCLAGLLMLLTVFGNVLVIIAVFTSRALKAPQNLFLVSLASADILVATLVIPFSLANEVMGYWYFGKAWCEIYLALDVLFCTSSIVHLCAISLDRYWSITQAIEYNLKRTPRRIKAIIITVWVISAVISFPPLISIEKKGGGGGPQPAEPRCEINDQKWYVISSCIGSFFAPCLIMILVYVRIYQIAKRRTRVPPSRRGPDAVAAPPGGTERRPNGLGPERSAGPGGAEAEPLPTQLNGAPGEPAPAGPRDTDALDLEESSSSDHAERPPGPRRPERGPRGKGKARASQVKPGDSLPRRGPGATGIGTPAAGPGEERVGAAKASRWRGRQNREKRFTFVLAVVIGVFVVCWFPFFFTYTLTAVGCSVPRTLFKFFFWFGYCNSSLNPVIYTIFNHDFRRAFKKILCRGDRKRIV

[5] = biological target: T5, Alpha-2B adrenergic receptor (Homo sapiens, UniProt P18089)
T5 sequence (P18089 whole entry): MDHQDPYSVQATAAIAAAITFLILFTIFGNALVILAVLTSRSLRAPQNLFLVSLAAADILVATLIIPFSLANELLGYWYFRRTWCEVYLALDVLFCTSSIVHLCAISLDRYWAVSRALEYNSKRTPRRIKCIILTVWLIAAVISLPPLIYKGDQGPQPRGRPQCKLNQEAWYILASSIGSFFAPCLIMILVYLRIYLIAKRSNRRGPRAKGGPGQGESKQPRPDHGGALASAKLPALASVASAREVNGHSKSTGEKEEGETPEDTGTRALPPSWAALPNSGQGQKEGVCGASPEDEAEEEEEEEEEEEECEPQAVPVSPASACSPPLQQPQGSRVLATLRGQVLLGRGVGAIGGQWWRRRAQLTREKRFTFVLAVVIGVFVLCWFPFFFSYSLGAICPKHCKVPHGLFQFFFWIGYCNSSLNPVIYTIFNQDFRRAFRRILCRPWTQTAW

[6] = biological target: Sodium-dependent serotonin transporter (Homo sapiens, UniProt P31645)
[7] = biological target: Gamma-aminobutyric acid receptor subunit alpha-1 (Rattus norvegicus, UniProt P62813); format: functional
Motilin receptor = Motilin receptor (Homo sapiens, UniProt O43193)
Cannabinoid receptor 1 = Cannabinoid receptor 1 (Homo sapiens, UniProt P21554); format: functional, cell-based
Further: assay procedure not described here.

Chain of Sodium-dependent serotonin transporter (P31645 whole entry): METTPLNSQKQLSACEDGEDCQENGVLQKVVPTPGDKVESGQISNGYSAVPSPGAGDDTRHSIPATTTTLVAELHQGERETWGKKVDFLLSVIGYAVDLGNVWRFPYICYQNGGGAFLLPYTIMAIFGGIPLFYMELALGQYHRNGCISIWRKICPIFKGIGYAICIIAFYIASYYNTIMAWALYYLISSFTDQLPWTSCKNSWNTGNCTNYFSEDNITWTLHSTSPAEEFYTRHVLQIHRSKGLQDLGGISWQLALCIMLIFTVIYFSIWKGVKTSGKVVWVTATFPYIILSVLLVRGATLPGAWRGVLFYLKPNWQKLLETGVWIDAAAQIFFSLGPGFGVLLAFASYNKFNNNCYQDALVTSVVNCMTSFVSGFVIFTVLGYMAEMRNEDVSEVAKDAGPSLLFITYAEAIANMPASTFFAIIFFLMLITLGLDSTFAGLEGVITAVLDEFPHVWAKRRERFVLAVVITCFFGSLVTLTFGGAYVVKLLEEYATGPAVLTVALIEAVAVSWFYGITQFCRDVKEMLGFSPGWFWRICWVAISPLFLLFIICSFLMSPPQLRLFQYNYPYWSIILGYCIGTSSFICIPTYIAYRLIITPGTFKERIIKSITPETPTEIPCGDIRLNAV
Chain of Kappa-type opioid receptor (P41145 whole entry): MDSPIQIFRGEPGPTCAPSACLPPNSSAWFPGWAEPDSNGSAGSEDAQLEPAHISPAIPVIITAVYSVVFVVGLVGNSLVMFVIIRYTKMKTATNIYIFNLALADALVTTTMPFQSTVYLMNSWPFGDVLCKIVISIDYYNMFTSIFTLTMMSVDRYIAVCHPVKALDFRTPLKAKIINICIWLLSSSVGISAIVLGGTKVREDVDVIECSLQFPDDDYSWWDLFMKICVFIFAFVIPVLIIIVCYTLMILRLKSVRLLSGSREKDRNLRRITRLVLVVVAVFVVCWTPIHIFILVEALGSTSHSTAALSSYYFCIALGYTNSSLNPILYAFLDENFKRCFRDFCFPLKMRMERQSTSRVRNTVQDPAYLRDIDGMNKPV
Chain of Cannabinoid receptor 1 (P21554 whole entry): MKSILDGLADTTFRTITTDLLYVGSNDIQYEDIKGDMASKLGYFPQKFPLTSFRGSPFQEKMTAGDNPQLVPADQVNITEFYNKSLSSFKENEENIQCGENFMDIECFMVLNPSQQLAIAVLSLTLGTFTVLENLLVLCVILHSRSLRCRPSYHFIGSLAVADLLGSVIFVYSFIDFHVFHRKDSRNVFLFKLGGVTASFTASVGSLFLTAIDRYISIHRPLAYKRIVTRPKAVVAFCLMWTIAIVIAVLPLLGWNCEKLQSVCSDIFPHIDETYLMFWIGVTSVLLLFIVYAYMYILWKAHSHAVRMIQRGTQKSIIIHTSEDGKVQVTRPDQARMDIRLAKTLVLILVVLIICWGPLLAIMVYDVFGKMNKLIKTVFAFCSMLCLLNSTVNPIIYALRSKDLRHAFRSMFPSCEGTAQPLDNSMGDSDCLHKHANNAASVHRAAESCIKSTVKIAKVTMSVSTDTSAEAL
Chain of Vasopressin V2 receptor (P30518 whole entry): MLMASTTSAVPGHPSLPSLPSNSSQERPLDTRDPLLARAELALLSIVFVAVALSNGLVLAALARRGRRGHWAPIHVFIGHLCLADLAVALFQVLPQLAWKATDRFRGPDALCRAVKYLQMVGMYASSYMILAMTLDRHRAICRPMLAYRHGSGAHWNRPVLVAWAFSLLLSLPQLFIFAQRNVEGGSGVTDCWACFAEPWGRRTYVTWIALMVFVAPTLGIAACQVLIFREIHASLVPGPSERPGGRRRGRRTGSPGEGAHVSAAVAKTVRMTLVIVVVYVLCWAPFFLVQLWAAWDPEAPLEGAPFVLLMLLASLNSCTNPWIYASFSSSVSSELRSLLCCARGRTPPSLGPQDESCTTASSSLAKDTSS
Chain of D(3) dopamine receptor (P35462 whole entry): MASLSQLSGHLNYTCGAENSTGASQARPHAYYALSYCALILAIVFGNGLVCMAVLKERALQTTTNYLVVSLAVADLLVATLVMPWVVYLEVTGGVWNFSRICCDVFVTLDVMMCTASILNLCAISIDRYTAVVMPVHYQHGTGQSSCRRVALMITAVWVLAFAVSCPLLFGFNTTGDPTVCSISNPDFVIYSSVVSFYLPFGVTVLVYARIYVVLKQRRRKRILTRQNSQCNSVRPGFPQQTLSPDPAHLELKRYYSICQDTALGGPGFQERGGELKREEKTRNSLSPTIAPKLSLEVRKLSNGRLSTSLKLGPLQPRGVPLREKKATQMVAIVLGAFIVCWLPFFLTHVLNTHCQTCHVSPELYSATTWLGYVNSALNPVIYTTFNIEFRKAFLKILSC
Chain of Adenosine receptor A2a (P29274 whole entry): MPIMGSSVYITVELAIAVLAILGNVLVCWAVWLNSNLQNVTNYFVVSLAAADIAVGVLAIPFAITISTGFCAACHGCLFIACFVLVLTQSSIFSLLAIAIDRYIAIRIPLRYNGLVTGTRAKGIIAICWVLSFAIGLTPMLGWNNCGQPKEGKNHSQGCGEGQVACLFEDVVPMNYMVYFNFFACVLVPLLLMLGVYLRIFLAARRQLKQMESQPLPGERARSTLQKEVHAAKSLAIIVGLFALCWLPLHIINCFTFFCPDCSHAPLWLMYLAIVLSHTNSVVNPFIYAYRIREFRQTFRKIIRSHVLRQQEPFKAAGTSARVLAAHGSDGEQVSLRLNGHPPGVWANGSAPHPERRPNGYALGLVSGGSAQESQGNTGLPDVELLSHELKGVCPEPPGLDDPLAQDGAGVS
Chain of Gamma-aminobutyric acid receptor subunit alpha-1 (P62813 whole entry): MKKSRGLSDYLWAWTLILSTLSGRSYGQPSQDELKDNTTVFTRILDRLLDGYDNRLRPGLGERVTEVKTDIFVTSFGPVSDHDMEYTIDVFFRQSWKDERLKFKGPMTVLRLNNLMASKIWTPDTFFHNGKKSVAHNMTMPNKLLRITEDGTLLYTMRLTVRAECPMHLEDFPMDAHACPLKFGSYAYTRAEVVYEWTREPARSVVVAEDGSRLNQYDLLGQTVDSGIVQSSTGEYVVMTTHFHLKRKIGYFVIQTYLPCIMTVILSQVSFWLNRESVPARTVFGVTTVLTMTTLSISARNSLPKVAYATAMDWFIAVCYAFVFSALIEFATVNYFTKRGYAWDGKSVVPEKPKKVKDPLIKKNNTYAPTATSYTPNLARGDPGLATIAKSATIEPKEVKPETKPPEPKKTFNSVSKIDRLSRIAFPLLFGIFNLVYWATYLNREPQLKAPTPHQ
Chain of Motilin receptor (O43193 whole entry): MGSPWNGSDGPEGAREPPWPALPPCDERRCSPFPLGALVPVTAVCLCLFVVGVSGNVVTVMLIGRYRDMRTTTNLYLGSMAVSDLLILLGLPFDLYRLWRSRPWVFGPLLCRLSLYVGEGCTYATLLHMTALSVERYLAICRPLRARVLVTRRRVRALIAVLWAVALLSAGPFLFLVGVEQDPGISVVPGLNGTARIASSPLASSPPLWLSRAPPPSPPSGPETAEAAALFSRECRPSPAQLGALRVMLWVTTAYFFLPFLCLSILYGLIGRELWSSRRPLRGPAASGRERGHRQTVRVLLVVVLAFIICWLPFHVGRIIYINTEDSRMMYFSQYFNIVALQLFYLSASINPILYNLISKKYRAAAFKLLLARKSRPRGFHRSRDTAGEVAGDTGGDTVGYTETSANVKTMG
Chain of 5-hydroxytryptamine receptor 2B (P41595 whole entry): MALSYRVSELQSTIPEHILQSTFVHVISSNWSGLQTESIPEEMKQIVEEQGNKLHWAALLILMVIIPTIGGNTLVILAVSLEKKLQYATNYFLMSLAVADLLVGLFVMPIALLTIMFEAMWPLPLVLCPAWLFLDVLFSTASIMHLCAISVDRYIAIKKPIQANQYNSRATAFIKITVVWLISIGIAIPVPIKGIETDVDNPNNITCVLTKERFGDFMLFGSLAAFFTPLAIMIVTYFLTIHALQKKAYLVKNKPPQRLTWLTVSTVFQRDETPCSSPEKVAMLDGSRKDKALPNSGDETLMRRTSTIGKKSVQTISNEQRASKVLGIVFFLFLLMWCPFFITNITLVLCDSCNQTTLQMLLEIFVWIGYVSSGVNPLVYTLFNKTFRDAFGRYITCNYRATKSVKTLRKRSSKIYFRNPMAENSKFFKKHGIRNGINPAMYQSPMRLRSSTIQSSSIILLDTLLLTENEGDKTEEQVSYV

| Compound | AC50 (Estrogen receptor) [µM] | AC50 (D(3) dopamine receptor) [µM] | AC50 [1] [µM] | AC50 [2] [µM] | AC50 (B2 bradykinin receptor) [µM] | AC50 [3] [µM] | AC50 (Adenosine receptor A2a) [µM] | AC50 (Vasopressin V2 receptor) [µM] | AC50 [4] [µM] | AC50 [5] [µM] | AC50 [6] [µM] | AC50 [7] [µM] | AC50 (Motilin receptor) [µM] | AC50 (Cannabinoid receptor 1) [µM] |
| --- | --- | --- | --- | --- | --- | --- | --- | --- | --- | --- | --- | --- | --- | --- |
| O=C(O)c1ccc2nc(-c3cc(Cl)cc(Cl)c3)oc2c1 | > 30 | > 1 | > 30 | > 30 | > 30 | > 10 | > 30 | > 30 | > 30 | > 30 | > 30 | > 30 | > 30 |  |
| NS(=O)(=O)c1ccc(N2CCCCS2(=O)=O)cc1 | > 30 | > 30 | 21 | > 30 | > 30 | > 30 | > 30 | > 30 | > 30 | > 30 | > 30 | > 30 | > 30 | > 30 |
| C[C@H](N)C(=O)N[C@@H](CCC(N)=O)C(=O)O [ALANYL GLUTAMINE] (H-Ala-Gln-OH) | > 30 | > 30 | > 30 | > 30 | > 30 | > 30 | > 30 | > 30 | > 30 | > 30 | > 30 | > 30 | > 30 | > 30 |
| COc1cc(N)cn[n+]1-c1ccccc1 [AMEZINIUM METILSULFATE] |  | > 30 | > 30 | > 30 | > 30 | > 30 | > 30 | > 30 | > 30 | > 30 | 17 | > 30 | > 30 | > 30 |
| CO/N=C(\C(=O)N[C@@H]1C(=O)N2C(C(=O)O)=C(CSc3nc(C)c(CC(=O)O)s3)CS[C@H]12)c1csc(N)n1 [CEFODIZIME] | > 30 | > 30 | > 30 | > 30 | > 30 | > 30 | > 30 | > 30 | > 30 | > 30 | > 30 | > 30 | > 30 | > 30 |
| CO/N=C(\C(=O)N[C@@H]1C(=O)N2C(C(=O)[O-])=C(C[n+]3ccc(N)n3CCO)CS[C@H]12)c1csc(N)n1 [CEFOSELIS] |  | > 30 | > 30 | > 30 | > 30 | > 30 | > 30 | > 30 | > 30 | > 30 | > 30 | > 30 | > 30 | > 30 |
| CC(=O)OCC1=C(C(=O)O)N2C(=O)[C@@H](NC(=O)Cc3cccs3)[C@H]2SC1 [CEPHALOTHIN] |  | > 30 | > 30 | > 30 | > 30 | > 30 | > 30 | > 30 | > 30 | > 30 | > 30 | > 30 | > 30 | > 30 |
| CC1=C(C(=O)O)N2C(=O)[C@@H](NC(=O)[C@H](N)C3=CCC=CC3)[C@H]2SC1 [CEPHRADINE] | > 30 | > 30 | > 30 | > 30 | > 10 | > 30 | > 30 | > 30 | > 30 | > 30 | > 30 | > 30 | > 30 | > 30 |
| COc1ccc2c3c1O[C@H]1C(=O)CC[C@H]4[C@@H](C2)N(C)CC[C@]314 [HYDROCODONE] | > 30 | > 10 |  | > 10 | > 30 | > 30 | > 30 | > 30 | > 10 | > 10 | > 10 | > 10 | > 10 |  |
| COC(=O)c1ccc2c(c1)NC(=O)/C2=C(\Nc1ccc(N(C)C(=O)CN2CCN(C)CC2)cc1)c1ccccc1 [NINTEDANIB] |  | > 30 | > 30 | > 30 | > 10 | > 30 | 21 | > 30 | > 30 | 11 | > 30 | > 30 | > 30 | > 30 |
| CCN(CC)Cc1nccn1-c1ccc([N+](=O)[O-])cc1C(=O)c1ccccc1Cl [NIZOFENONE] |  | > 30 | 6.3 | > 30 | > 30 | > 30 | > 30 | > 30 | > 30 | > 10 | > 30 | > 30 | > 30 | > 30 |
| CN1CCCN=C1/C=C/c1cccc(O)c1 [OXANTEL] |  | > 30 | 20 | > 30 | > 30 | > 10 | > 30 | > 30 | > 30 | > 30 | > 30 | > 30 | > 30 | > 30 |
| OCC(CO)N[C@H]1C[C@](O)(CO)[C@@H](O)[C@H](O)[C@H]1O [VOGLIBOSE] | > 30 | > 30 | > 30 | > 30 | > 30 | > 30 | > 30 | > 30 | > 30 | > 30 | > 30 | > 30 | > 30 |  |
